Assay results from patent US20090048233A1, “Enhancing the Tolerability of a Seratonin Antagonist and a NSRI, a SNRI or a RIMA by Using Them in Combination” (CYPRESS BIOSCIENCES, INC., priority 2007, published 2009).

Key:
[1] = test system: patients with fibromyalgia; conditions: open study; cited from earlier work
[2] = test system: normal, health subjects; assay: Example 4 tolerability study, mirtazapine and milnacipran; conditions: 6 weeks, 15 mg mirtazapine or 50 mg milnacipran
Protocol: (§1) The subjects receive 2 capsules per day, one in the morning and one at bedtime. […] All medications are administered in an over-encapsulated format that ensures blinding of study participants, staff and investigators. All subjects are scheduled to receive a total of 6 weeks of therapy, and are required to return to the clinics after 1, 2, 4 and 6 weeks of therapy. Patients are required to complete paper self-assessments, electronic diary assessments, computer based cognitive testing, as well as vital signs and weight assessments at the clinic visits.

[3] = test system: normal, health subjects; assay: Example 1A tolerability study, mirtazapine and 1S,2R-enriched milnacipran; conditions: 6 weeks, milnacipran with 1S,2R:1R,2S ratio about 55:45 to 90:10
Protocol: as §1

[4] = test system: cancer patients with pain; conditions: open trial in cancer pain, 15 and 30 mg; cited from earlier work
[5] = test system: normal, health subjects; assay: Example 5 tolerability study, mirtazapine and duloxetine; assay type: in vivo, human; conditions: 6 weeks, 15 mg mirtazapine or 30 mg duloxetine
[6] = test system: normal, health subjects; assay: Example 1 tolerability study, mirtazapine and milnacipran or duloxetine; conditions: 6 weeks, 15 mg mirtazapine or 100 mg milnacipran or duloxetine
Protocol: as §1

[7] = test system: chronic tension type headache; conditions: controlled trial; cited from earlier work
[8] = test system: reuptake of noradrenaline and serotonin; conditions: in vivo; cited from earlier work
[9] = controlled studies; cited from earlier work

Structure (SMILES)	activity in fibromyalgia pain [1]	side effects of the drug alone [2]	side effects of the drug alone [3]	depression levels [4]	pain intensity [4]	side effects of the drug alone [5]	side effects of the drug alone [6]	efficacy in chronic tension type headache [7]	potency for inhibiting the reuptake of both noradrenaline and serotonin [8]	appetite increase reported, share of patients [9] [%]	weight gain of greater than or equal to 7% of body weight reported, share of patients [9] [%]
CN1CCN2c3ncccc3Cc3ccccc3C2C1 (stereo not drawn) [mirtazapine, 1,2,3,4,10,14b-hexahydro-2-methylpyrazino [2,1-a]pyrido[2,3-c]benzazepine]	has some activity in fibromyalgia pain	does cause weight gain, sedation, and cognitive deficits	does cause weight gain, sedation, and cognitive deficits	significant improvements were obtained in depression levels	pain intensity was not statistically improved	does cause weight gain, sedation, and cognitive deficits	does cause weight gain, sedation, and cognitive deficits	suggested efficacy in chronic tension type headache	–	–	–
CCN(CC)C(=O)[C@@]1(c2ccccc2)C[C@H]1CN (racemic) [milnacipran, cis-(±)-2-(aminomethyl)-N,N-diethyl-1-phenylcyclopropanecarboxamide]	–	causes insomnia, nausea/vomiting, and weight loss	causes insomnia, nausea/vomiting, and weight loss	–	–	–	causes insomnia, nausea/vomiting, and weight loss	–	nearly equal potency	–	–
CN(C)CCC=C1c2ccccc2CCc2ccccc21 [amitriptyline]	–	–	–	–	–	–	–	–	–	6	5.9
CNCC[C@H](Oc1cccc2ccccc12)c1cccs1 [duloxetine, (+)-(S)—N-methyl-3-(1-naphthyloxy)-3-(thiophen-2-yl)-propan-1-amine]	–	causes insomnia, nausea/vomiting, and weight loss	causes insomnia, nausea/vomiting, and weight loss	–	–	causes insomnia, nausea/vomiting, and weight loss	causes insomnia, nausea/vomiting, and weight loss	–	–	–	–
